This experiment deals with human angiotensin-converting enzyme 2 (ACE2) (Homo sapiens, UniProt Q9BYF1). Nature of the experiment: biolayer interferometry. The experiment is classed as binding.

SMILES strings stand for the structures.

Sequence of human angiotensin-converting enzyme 2 (ACE2) (Q9BYF1 18-740): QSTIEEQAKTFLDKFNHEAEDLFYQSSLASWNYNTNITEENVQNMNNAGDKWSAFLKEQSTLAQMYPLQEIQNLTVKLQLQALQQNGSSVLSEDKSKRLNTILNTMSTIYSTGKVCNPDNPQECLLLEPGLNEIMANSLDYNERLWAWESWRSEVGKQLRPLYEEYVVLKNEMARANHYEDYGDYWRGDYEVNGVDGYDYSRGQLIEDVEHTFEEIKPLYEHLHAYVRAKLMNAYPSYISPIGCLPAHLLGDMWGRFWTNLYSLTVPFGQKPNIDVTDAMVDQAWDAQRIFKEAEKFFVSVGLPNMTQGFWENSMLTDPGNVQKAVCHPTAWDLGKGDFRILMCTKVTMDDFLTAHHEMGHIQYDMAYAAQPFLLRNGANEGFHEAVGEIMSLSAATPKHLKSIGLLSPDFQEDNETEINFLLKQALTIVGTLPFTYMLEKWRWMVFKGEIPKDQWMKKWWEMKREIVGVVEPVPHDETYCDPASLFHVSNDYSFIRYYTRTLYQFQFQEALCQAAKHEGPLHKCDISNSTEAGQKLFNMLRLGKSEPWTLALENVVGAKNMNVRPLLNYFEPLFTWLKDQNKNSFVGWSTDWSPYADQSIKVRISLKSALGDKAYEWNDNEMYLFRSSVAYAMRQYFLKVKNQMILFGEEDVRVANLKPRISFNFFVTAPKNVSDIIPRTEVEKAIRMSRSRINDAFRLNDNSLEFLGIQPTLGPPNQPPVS

Regarding `C=CC1=C(C)c2cc3[nH]c(cc4nc(cc5[nH]c(cc1n2)c(C)c5CCC(=O)O)C(CCC(=O)O)=C4C)c(C)c3C=C` [protoporphyrin IX], binding was put at a Kd of 39 µM.

What is called Kd is the free concentration of one partner at which half of the binding sites on the other are occupied at equilibrium, for simple one-to-one binding. Read a high Kd as a looser complex.
